Reference: patent US20180215769A1, “POLYCYCLIC-CARBAMOYLPYRIDONE COMPOUNDS AND THEIR PHARMACEUTICAL USE” (priority 2012, published 2018)
Like-named read-outs stand apart in the source and are kept apart here.

What was measured:
Assay type in all cases: cell-based
human PXR = biological target: T1, human PXR (Homo sapiens, UniProt O75469); assay: Human PXR activation assay, luciferase reporter gene in DPX2 cells; conditions: 24 hr, relative to maximum fold induction by 10 or 20 uM rifampicin
T1 construct: expressed in transfected cells; host or cells: DPX2 (stably transformed tumor cell line)
T1 sequence (O75469 1-434): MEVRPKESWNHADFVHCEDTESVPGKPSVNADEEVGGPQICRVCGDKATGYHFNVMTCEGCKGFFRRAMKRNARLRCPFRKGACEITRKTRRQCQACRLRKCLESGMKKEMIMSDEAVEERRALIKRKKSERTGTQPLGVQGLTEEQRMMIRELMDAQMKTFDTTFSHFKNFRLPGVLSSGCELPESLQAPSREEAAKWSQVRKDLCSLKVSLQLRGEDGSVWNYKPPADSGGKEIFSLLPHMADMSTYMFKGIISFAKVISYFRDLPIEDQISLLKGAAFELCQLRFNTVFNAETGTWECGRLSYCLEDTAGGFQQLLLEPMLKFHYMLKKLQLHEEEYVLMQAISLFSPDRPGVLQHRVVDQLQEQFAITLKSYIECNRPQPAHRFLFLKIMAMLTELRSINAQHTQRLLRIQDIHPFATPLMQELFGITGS
Experimental: (§1) Luciferase Reporter Gene Assay.
(§2) A stably transformed tumor cell line (DPX2) plated on 96-well microtiter plates. DPX2 cells harbor the human PXR gene (NR1I2) and a luciferase reporter gene linked to two promoters identified in the human CYP3A4 gene, namely XREM and PXRE. The cells are treated with six concentrations of compounds (0.15˜50 µM) and incubated for 24 hr. The number of viable cells will be determined and the reporter gene activity is assessed. Positive control: Rifampicin at 6 concentrations (0.1˜20 µM). % Emax relative to the maximum fold induction by 10 or 20 µM RIF is calculated for test compounds according to the following equation which adjusts for the DMSO background: % Emax=(Fold induction−1)/(Maximum fold induction by RIF−1)×100%.

human PXR (NR1I2) = biological target: T2, human PXR (NR1I2) (Homo sapiens, UniProt O75469); assay: as above; conditions: human, relative to maximum fold induction by 10 or 20 uM rifampicin
T2 construct: expressed in transfected cells; host or cells: DPX2 (stably transformed tumor cell line)
T2 sequence (O75469 1-434): T1 sequence (O75469 1-434)
Experimental: as §1, §2

HIV-IIIb = assay: Antiviral assay in MT4 cells; conditions: Human immunodeficiency virus 1, IIIB, MT4, 120 h
Experimental: (§3) For the antiviral assay utilizing MT4 cells, 0.4 μL of 189× test concentration of 3-fold serially diluted compound in DMSO was added to 40 μL of cell growth medium (RPMI 1640, 10% FBS, 1% penicilline/Streptomycine, 1% L-Glutamine, 1% HEPES) in each well of 384-well assay plates (10 concentrations) in quidruplicate.
(§4) 1 mL aliquots of 2×10^6 MT4 cells are pre-infected for 1 and 3 hours respectively at 37° C. with 25 μL (MT4) or of either cell growth medium (mock-infected) or a fresh 1:250 dilution of an HIV-IIIb concentrated ABI stock (0.004 m.o.i. for MT4 cells). Infected and uninfected cells are diluted in cell growth medium and 35 μL of 2000 (for MT4) cells is added to each well of the assay plates.
(§5) Assay plates were then incubated in a 37° C. incubator. After 5 days of incubation, 25 μL of 2× concentrated CellTiter-Glo™ Reagent (catalog # G7573, Promega Biosciences, Inc., Madison, Wis.) was added to each well of the assay plate. Cell lysis was carried out by incubating at room temperature for 2-3 minutes, and then chemiluminescence was read using the Envision reader (PerkinElmer).

[1] = Cytotoxicity (CC50) in MT4 cells, CellTiter-Glo; conditions: human
Experimental: as §3, §4, §5

[2] = MT-4 cells infected with HIV-IIIb, 5 days incubation, read-out: EC50

SMILES | % Emax (human PXR) [%] | EC50 (HIV-IIIb; [2]) [nM] | CC50 at 5 days [1] [nM] | also measured
O=C(NCc1ccc(F)cc1F)c1cn2c(c(O)c1=O)C(=O)N1C(C2)[N@@]2CC[C@@H]1C2 (stereo partly drawn) [Compound 4, (1 S,4R)—N-(2,4-difluorobenzyl)-7-hydroxy-6,8-dioxo-3,4,6,8,12,12a-hexahydro-2H-1,4-methanopyrido[1′,2′:4,5]pyrazino[1,2-a]pyrimidine-9-carboxamide] | 3.2 | – | – | –
C[C@@H](NC(=O)c1cn2c(c(O)c1=O)C(=O)N1[C@H]3CC[C@H](C3)O[C@@H]1C2)c1ccc(F)cc1 [Compound 10] | – | – | – | Emax at 24 hr, 15 µM (human PXR (NR1I2)): 0.19%
C[C@@H](NC(=O)c1cn2c(c(O)c1=O)C(=O)N1[C@@H]3CC[C@@H](C3)O[C@H]1C2)c1ccc(F)cc1 [Compound 9] | – | – | – | Emax at 24 hr, 15 µM (human PXR (NR1I2)): 0.07%
O=C(NCc1ccc(F)cc1F)c1cn2c(c(O)c1=O)C(=O)N1C(C2)[N@@]2CCC[C@@H]1C2 (stereo partly drawn) [Compound 20] | 2.4 | – | – | –
O=C(NCc1ccccc1F)c1cn2c(c(O)c1=O)C(=O)N1[C@@H]3CC[C@@H](C3)O[C@H]1C2 [Compound 23] | – | 1.8 | 11500 | –
O=C(NCc1cc(F)cc(F)c1)c1cn2c(c(O)c1=O)C(=O)N1[C@@H]3CC[C@@H](C3)O[C@H]1C2 [Compound 24] | – | – | – | EC50 (HIV-IIIb): 3.4 nM; CC50 at 5 days ([1]; MT4 cells, MT-4 cells, 5 days incubation, read-out: CC50): 12600 nM
O=C(N[C@@H](c1ccc(F)cc1F)C(F)(F)F)c1cn2c(c(O)c1=O)C(=O)N1C(C2)O[C@H]2CC[C@@H]1C2 (stereo partly drawn) [Compound 36] | – | 3.5 | 13500 | –
O=C(NCc1ccc(F)cc1F)c1cn2c(c(O)c1=O)C(=O)N1C(C2)O[C@@H]2CCC[C@H]1C2 (stereo partly drawn) [Compound 8] | 6.6 | – | – | –
O=C(NC1(c2ccc(F)cc2F)CC1)c1cn2c(c(O)c1=O)C(=O)N1C(C2)O[C@@H]2CCC[C@H]1C2 (stereo partly drawn) [Compound 29] | 3.2 | – | – | –
O=C(NCc1ccc(F)cc1F)c1cn2c(c(O)c1=O)C(=O)N1C(C2)[N@]2CCC[C@H]1C2 (stereo partly drawn) [Compound 19] | 1.5 | – | – | –
O=C(NCc1ccc(F)cc1F)c1cn2c(c(O)c1=O)C(=O)N1[C@H]3CC[C@H](C3)O[C@@H]1C2 [Compound 2] | – | 1.9 | 2960 | Emax at 24 hr, 15 µM (human PXR (NR1I2)): 2.8%
C[C@@H](NC(=O)c1cn2c(c(O)c1=O)C(=O)N1[C@@H]3CC[C@@H](C3)O[C@H]1C2)c1ccc(F)cc1F [Compound 11] | – | 4.4 | – | –
O=C(NCc1ccc(F)cc1F)c1cn2c(c(O)c1=O)C(=O)N1[C@@H]3CC[C@@H](C3)O[C@H]1C2 [Compound 3] | – | 1.9 | 36200 | Emax at 24 hr, 15 µM (human PXR (NR1I2)): 5%
O=C(NCc1ccc(F)c(C(F)(F)F)c1)c1cn2c(c(O)c1=O)C(=O)N1[C@@H]3CC[C@@H](C3)O[C@H]1C2 [Compound 25] | – | 17.9 | 7070 | –
O=C(NCc1ccc(Cl)c(F)c1)c1cn2c(c(O)c1=O)C(=O)N1[C@@H]3CC[C@@H](C3)O[C@H]1C2 [Compound 26] | – | 8 | 11500 | –
O=C(NC1(c2ccc(F)cc2F)CCCCC1)c1cn2c(c(O)c1=O)C(=O)N1C(C2)O[C@H]2CC[C@@H]1C2 (stereo partly drawn) [Compound 34] | – | – | – | EC50 (HIV-IIIb): 456 nM
O=C(NCc1ccc(F)c(F)c1)c1cn2c(c(O)c1=O)C(=O)N1[C@@H]3CC[C@@H](C3)O[C@H]1C2 [Compound 18] | 4.4 | – | – | –
O=C(NCc1ccc(F)cc1F)c1cn2c(c(O)c1=O)C(=O)N1C(C2)[N@]2CC[C@H]1C2 (stereo partly drawn) [Compound 6] | – | – | 53200 | –
O=C(NCc1ccc(F)cc1F)c1cn2c(c(O)c1=O)C(=O)N1C(C2)O[C@H]2CCC[C@@H]1C2 (stereo partly drawn) [Compound 7] | 6.5 | – | – | –
O=C(NC1(c2ccc(F)cc2F)CC1)c1cn2c(c(O)c1=O)C(=O)N1C(C2)O[C@H]2CC[C@@H]1C2 (stereo partly drawn) [Compound 27] | – | 4 | – | –
C[C@@H](NC(=O)c1cn2c(c(O)c1=O)C(=O)N1[C@H]3CC[C@H](C3)O[C@@H]1C2)c1ccc(F)cc1F [Compound 12] | – | 5.4 | 3230 | –
C[C@H]1CO[C@@H]2Cn3cc(C(=O)NC4(c5ccc(F)cc5F)CC4)c(=O)c(O)c3C(=O)N12 [Compound 37, (3S,11aR)—N-(1-(2,4-difluorophenyl)cyclopropyl)-6-hydroxy-3-methyl-5,7-dioxo-2,3,5,7,11,11a-hexahydrooxazolo[3,2-a]pyrido[1,2-d]pyrazine-8-carboxamide] | 1.5 | – | – | –
O=C(NC1(c2ccc(F)cc2F)CC1)c1cn2c(c(O)c1=O)C(=O)N1C(C2)O[C@H]2CCC[C@@H]1C2 (stereo partly drawn) [Compound 28] | 6.1 | – | – | –
